# Data from patent publication US20140371074A1, “METHOD TO INCREASE PLANT YIELD” (priority 2012, published 2014).
# Test system: soybean cultivars L2711R2X, L3385R2
# Experiment: Field 2012: 2,4-D Low Vol 4 + crop oil drizzled onto soil at R1 stage, Laurel, Iowa (Table 2b)
# Assay type: in vivo
# Method: Plants were treated by drizzling via low pressure spraying the 2,4-D solution onto the soil along each side of the rows when plants are at the R1 stage of growth. The date of planting was May 15, 2012 and the date of harvest was Oct. 2, 2012 at plots in Alexander, Iowa (Table 2a) and Laurel, Iowa (Table 2b). Plants were grown from Roundup Ready seed and were sprayed with glyphosate for weed control. Plants were treated with between 1X and 5.5X of 2,4-D solution mixed with crop oil at 15.3 ounces of 2,4-D Low Vol 4 plus 0.32 ounces crop oil per gallon, where 1X is equivalent to approximately 0.45 pounds acid equivalent of 2,4-D. Two repetitions were performed at different plots. […] The moisture percentages were used in correcting each yield to a 13% moisture basis.
# [1] = 1.0X Rate, L2711R2X, 1X~0.45 lb a.e.
# [2] = 1.0X Rate, L3385R2, 1X~0.45 lb a.e.
# [3] = 1.5X Rate, L2711R2X, 1X~0.45 lb a.e.
# [4] = 1.5X Rate, L3385R2, 1X~0.45 lb a.e.
# [5] = 2.0X Rate, L2711R2X, 1X~0.45 lb a.e.
# [6] = 2.0X Rate, L3385R2, 1X~0.45 lb a.e.
# [7] = 2.5X Rate, L2711R2X, 1X~0.45 lb a.e.
# [8] = 2.5X Rate, L3385R2, 1X~0.45 lb a.e.
# [9] = 3.0X Rate, L2711R2X, 1X~0.45 lb a.e.
# [10] = 3.0X Rate, L3385R2, 1X~0.45 lb a.e.
# [11] = 3.5X Rate, L2711R2X, 1X~0.45 lb a.e.
# [12] = 3.5X Rate, L3385R2, 1X~0.45 lb a.e.
# [13] = 4.0X Rate, L2711R2X, 1X~0.45 lb a.e.
# [14] = 4.0X Rate, L3385R2, 1X~0.45 lb a.e.
# [15] = 4.5X Rate, L2711R2X, 1X~0.45 lb a.e.
# [16] = 4.5X Rate, L3385R2, 1X~0.45 lb a.e.
# [17] = 5.0X Rate, L2711R2X, 1X~0.45 lb a.e.
# [18] = 5.0X Rate, L3385R2, 1X~0.45 lb a.e.
# [19] = 5.5X Rate, L2711R2X, 1X~0.45 lb a.e.
# [20] = 5.5X Rate, L3385R2, 1X~0.45 lb a.e.
# [21] = Average over 1.0X-3.0X Rates, L2711R2X
# [22] = Average over 1.0X-3.0X Rates, L3385R2
# [23] = Average over 1.0X-5.5X Rates, L2711R2X
# [24] = Average over 1.0X-5.5X Rates, L3385R2
# [25] = Overall location average, all rates, both cultivars
smiles,measurement,setting,value
"O=C(O)COc1ccc(Cl)cc1Cl [2,4-D, 2,4-Dichlorophenoxyacetic acid]",Average Yield,[1],64.93 Bu/A
same,Repetition 1 Weight,[1],5.6 Lbs
same,Repetition 1 Yield,[1],62.69 Bu/A
same,Repetition 2 Weight,[1],6.0 Lbs
same,Repetition 2 Yield,[1],67.16 Bu/A
same,Average Yield,[2],72.50 Bu/A
same,Repetition 1 Weight,[2],6.7 Lbs
same,Repetition 1 Yield,[2],73.40 Bu/A
same,Repetition 2 Weight,[2],6.5 Lbs
same,Repetition 2 Yield,[2],71.60 Bu/A
same,Average Yield,[3],67.20 Bu/A
same,Repetition 1 Weight,[3],6.6 Lbs
same,Repetition 1 Yield,[3],73.88 Bu/A
same,Repetition 2 Weight,[3],5.4 Lbs
same,Repetition 2 Yield,[3],60.51 Bu/A
same,Average Yield,[4],75.70 Bu/A
same,Repetition 1 Weight,[4],6.8 Lbs
same,Repetition 1 Yield,[4],74.34 Bu/A
same,Repetition 2 Weight,[4],6.9 Lbs
same,Repetition 2 Yield,[4],77.07 Bu/A
same,Average Yield,[5],63.41 Bu/A
same,Repetition 1 Weight,[5],5.7 Lbs
same,Repetition 1 Yield,[5],64.01 Bu/A
same,Repetition 2 Weight,[5],5.6 Lbs
same,Repetition 2 Yield,[5],62.82 Bu/A
same,Average Yield,[6],70.93 Bu/A
same,Repetition 1 Weight,[6],6.3 Lbs
same,Repetition 1 Yield,[6],70.22 Bu/A
same,Repetition 2 Weight,[6],6.4 Lbs
same,Repetition 2 Yield,[6],71.64 Bu/A
same,Average Yield,[7],63.35 Bu/A
same,Repetition 1 Weight,[7],5.7 Lbs
same,Repetition 1 Yield,[7],63.87 Bu/A
same,Repetition 2 Weight,[7],5.6 Lbs
same,Repetition 2 Yield,[7],62.82 Bu/A
same,Average Yield,[8],71.91 Bu/A
same,Repetition 1 Weight,[8],6.3 Lbs
same,Repetition 1 Yield,[8],70.60 Bu/A
same,Repetition 2 Weight,[8],6.5 Lbs
same,Repetition 2 Yield,[8],73.23 Bu/A
same,Average Yield,[9],63.84 Bu/A
same,Repetition 1 Weight,[9],5.5 Lbs
same,Repetition 1 Yield,[9],61.50 Bu/A
same,Repetition 2 Weight,[9],5.9 Lbs
same,Repetition 2 Yield,[9],66.19 Bu/A
same,Average Yield,[10],71.91 Bu/A
same,Repetition 1 Weight,[10],6.6 Lbs
same,Repetition 1 Yield,[10],74.12 Bu/A
same,Repetition 2 Weight,[10],6.2 Lbs
same,Repetition 2 Yield,[10],69.70 Bu/A
same,Repetition 1 Weight,[11],5.7 Lbs
same,Repetition 1 Yield,[11],63.74 Bu/A
same,Average Yield,"3.5X Rate, L2711R2X, 1X~0.45 lb a.e., repetition 1 only",63.74 Bu/A
same,Repetition 1 Weight,[12],6.3 Lbs
same,Repetition 1 Yield,[12],68.94 Bu/A
same,Average Yield,"3.5X Rate, L3385R2, 1X~0.45 lb a.e., repetition 1 only",68.94 Bu/A
same,Repetition 1 Weight,[13],6.1 Lbs
same,Repetition 1 Yield,[13],68.28 Bu/A
same,Average Yield,"4.0X Rate, L2711R2X, 1X~0.45 lb a.e., repetition 1 only",68.28 Bu/A
same,Repetition 1 Weight,[14],6.7 Lbs
same,Repetition 1 Yield,[14],74.76 Bu/A
same,Average Yield,"4.0X Rate, L3385R2, 1X~0.45 lb a.e., repetition 1 only",74.76 Bu/A
same,Repetition 1 Weight,[15],6.3 Lbs
same,Repetition 1 Yield,[15],70.60 Bu/A
same,Average Yield,"4.5X Rate, L2711R2X, 1X~0.45 lb a.e., repetition 1 only",70.60 Bu/A
same,Repetition 1 Weight,[16],6.6 Lbs
same,Repetition 1 Yield,[16],72.78 Bu/A
same,Average Yield,"4.5X Rate, L3385R2, 1X~0.45 lb a.e., repetition 1 only",72.78 Bu/A
same,Repetition 1 Weight,[17],5.9 Lbs
same,Repetition 1 Yield,[17],66.11 Bu/A
same,Average Yield,"5.0X Rate, L2711R2X, 1X~0.45 lb a.e., repetition 1 only",66.11 Bu/A
same,Repetition 1 Weight,[18],6.6 Lbs
same,Repetition 1 Yield,[18],74.12 Bu/A
same,Average Yield,"5.0X Rate, L3385R2, 1X~0.45 lb a.e., repetition 1 only",74.12 Bu/A
same,Repetition 1 Weight,[19],5.4 Lbs
same,Repetition 1 Yield,[19],60.45 Bu/A
same,Average Yield,"5.5X Rate, L2711R2X, 1X~0.45 lb a.e., repetition 1 only",60.45 Bu/A
same,Repetition 1 Weight,[20],6.3 Lbs
same,Repetition 1 Yield,[20],70.37 Bu/A
same,Average Yield,"5.5X Rate, L3385R2, 1X~0.45 lb a.e., repetition 1 only",70.37 Bu/A
same,Repetition 2 Weight,[21],5.7 Lbs
same,Repetition 2 Yield,[21],63.90 Bu/A
same,Repetition 2 Weight,[22],6.5 Lbs
same,Repetition 2 Yield,[22],72.65 Bu/A
same,Average Yield,[23],65.19 Bu/A
same,Repetition 1 Weight,[23],5.9 Lbs
same,Repetition 1 Yield,[23],65.51 Bu/A
same,Average Yield,[24],72.39 Bu/A
same,Repetition 1 Weight,[24],6.5 Lbs
same,Repetition 1 Yield,[24],72.36 Bu/A
same,Average Yield,[25],68.79 Bu/A
same,Repetition 1 Weight,[25],6.2 Lbs
same,Repetition 1 Yield,[25],68.94 Bu/A
same,Repetition 2 Weight,[25],6.1 Lbs
same,Repetition 2 Yield,[25],68.27 Bu/A
